According to patent publication US6215002A, “Pyrrolopyrrolone derivatives as inhibitors of neutrophil elastase” (priority 1996, dated 2001):
Structures can show the parent of a compound that is named as a salt.

What was measured:
[1] = biological target: T1, human neutrophil elastase (Homo sapiens, UniProt P08246); assay: In vitro assay of human neutrophil elastase (HNE); format: biochemical; conditions: 118 nM purified human neutrophil elastase, pH 8.6, 15 min incubation at 30° C., MeO-succinyl-alanyl-alanyl-prolyl-valyl-p-nitroanilide substrate; read-out: HNE IC50
T1 sequence (P08246 30-267): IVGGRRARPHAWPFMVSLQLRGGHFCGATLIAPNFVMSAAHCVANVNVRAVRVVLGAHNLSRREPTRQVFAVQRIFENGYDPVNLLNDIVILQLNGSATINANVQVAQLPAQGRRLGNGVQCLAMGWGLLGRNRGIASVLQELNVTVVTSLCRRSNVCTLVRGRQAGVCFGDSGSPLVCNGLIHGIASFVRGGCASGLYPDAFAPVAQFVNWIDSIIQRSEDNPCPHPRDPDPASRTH
Summary of the method: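 Residual activity was taken as the 10 min rate of absorbance rise at 405 nm after adding 0.6 mM MeO-succinyl-AAPV-p-nitroanilide. Curve fitting of activity against concentration gave IC50.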

Intracellular elastase = assay: Oral in vivo model using IL-8 induced lung infiltrates for the assessment of intracellular elastase inhibition (hamster test); conditions: effective dose of less than 40 mg/kg, IL-8 intratracheal
Method: An Oral in vivo Model Using IL-8 Induced Lung Infiltrates For the Assessment of Intracellular Elastase Inhibition
Adult hamsters (100-150 g) are randomised into groups (n=4) and fasted overnight. Under gaseous anaesthetic (3% isofluorane) animals are dosed orally with 1 mL/100 g water as vehicle or containing predissolved compounds. Either at the same time, or subsequently under anaesthetic, animals are dosed intratracheally with 1 ug recombinant human IL-8 in 100 uL sterile saline. Six hours after IL-8 dosing animals are sacrificed using intrapertoneal pentobarbitone. The lungs are ravaged with 2×2.5 mL sterile saline and femurs are removed by dissection.
Intracellular elastase is prepared from neutrophils collected by lavage and from femoral bone marrow. This is achieved by sonication of the neutrophils and centrifugation to yield intracellular granules. These are disrupted by freeze/thawing and sonication. Elastase and myeloperoxidase assays are then performed on these samples to assess the efficacy of the compounds and to normalise for neutrophil recovery.

Compound | IC50 [1] | duration of effect (Intracellular elastase)
CC(C)[C@H]1C(=O)N(S(C)(=O)=O)[C@H]2CCN(C(=O)c3cccc(CN(C)C)c3)[C@H]12 (relative stereo) [Example 253, rel-(3R3aR,6aS)-4-(3-Dimethylaminomethyl-benzoyl)-3-isopropyl-1-methanesulfonyl-hexahydro-pyrrolo[3,2-b]pyrrol-2-one hydrochloride] | 76 nM | at least 6 hours
CC(C)[C@H]1C(=O)N(S(C)(=O)=O)[C@H]2CCN(C(=O)c3ccc(CNC4CC4)cc3)[C@H]12.Cl (relative stereo) [Example 180, rel-(3R,3aR,6aS)-4(4-Cyclopropylaminomethyl-benzoyl)-3-isopropyl-1-methanesulfonyl-hexahydro-pyrrolo[3,2-b]pyrrol-2-one hydrochloride] | 42 nM | at least 6 hours
CC(C)[C@H]1C(=O)N(S(C)(=O)=O)[C@H]2CCN(C(=O)c3cccc(CNC4CC4)c3)[C@H]12.Cl (relative stereo) [Example 190, rel-(3R,3aR,6aS)-4-(3-Cyclopropylaminomethyl-benzoyl)-3-isopropyl-1-methanesulfonyl-hexahydro-pyrrolo[3,2-b]pyrrol-2-one hydrochloride] | 24 nM | at least 6 hours
CC(C)[C@H]1C(=O)N(S(C)(=O)=O)[C@H]2CCN(C(=O)/C=C/CN3C[C@H]4Cc5c(F)ccc(F)c5C[C@@H]4C3)[C@H]12 (relative stereo) [Example 153, rel-(3R,3aR,6aS)-4-[4-(5,8-Difluoro-1,3,3a,4,9,9a-hexahydro-(3aS,9aS)-benzol[f]isoindol-2-yl)-but-2E-enoyl]-3-isopropyl-1-methanesulfonyl-hexahydro-pyrrolo[3,2-b]pyrrol-2-one hydrochloride] | 114 nM | at least 6 hours
COC(=O)[C@@H]1CCCN1Cc1ccc(C(=O)N2CC[C@H]3[C@H]2[C@@H](C(C)C)C(=O)N3S(C)(=O)=O)cc1 (relative stereo) [Example 183, 1-[4-(rel-6R-Isopropyl-4-methanesulfonyl-5-oxo-hexahydro-(3aS,6aR)-pyrrolo[3,2-b]pyrrole-1-carbonyl)-benzyl]-pyrrolidine-2S-carboxylic acid methyl ester hydrochloride] | 46 nM | at least 6 hours
CC(C)[C@H]1C(=O)N(S(C)(=O)=O)[C@H]2CCN(C(=O)c3ccc(CN4CCC5CCCCC5C4)cc3)[C@H]12.Cl (relative stereo) [Example 184, rel-(3R,3aR,6aS)-3-Isopropyl-1-methanesulfonyl-4-[4-(octahydro-isoquinolin-2-ylmethyl)-benzoyl]-hexahydro-pyrrolo[3,2-b]pyrrol-2-one hydrochloride] | 12 nM | at least 6 hours
CCCN(C)C/C=C/C(=O)N1CC[C@H]2[C@H]1[C@@H](C(C)C)C(=O)N2S(C)(=O)=O.Cl (relative stereo) [Example 141, rel-(3R,3aR,6aS)-3-Isopropyl-1-methanesulfonyl-4-[4-(methyl-propyl-amino)-but-2E-enoyl]-hexahydro-pyrrolo[3,2-b]pyrrol-2-one hydrochloride] | 176 nM | at least 6 hours
CC(C)[C@H]1C(=O)N(S(C)(=O)=O)[C@H]2CCN(C(=O)/C=C/CN3CCC(C(N)=O)CC3)[C@H]12.Cl (relative stereo) [Example 152, rel-1-[4-(6R-Isopropyl-4-methanesulfonyl-5-oxo-hexahydro-(3aS,6aR)-pyrrolo[3,2-b]pyrrol-1-yl)-4-oxo-but-2E-enyl]-piperidine-4-carboxylic acid amide hydrochloride] | 21 nM | at least 6 hours
CC(C)[C@H]1C(=O)N(S(C)(=O)=O)[C@H]2CCN(C(=O)c3cccs3)[C@H]12 (relative stereo) [Example 249, rel-(3R,3aR,6aS)-3-Isopropyl-1-methanesulfonyl-4-(thiophene-2-carbonyl)-hexahydro-pyrrolo[3,2-b]pyrrol-2-one] | 68 nM | at least 6 hours
CC(C)[C@H]1C(=O)N(S(C)(=O)=O)[C@H]2CCN(C(=O)/C=C/CN3CCCC3)[C@H]12.Cl (relative stereo) [Example 146, rel-(3R,3aR,6aS)-3-Isopropyl-1-methanesulfonyl-4(4-pyrrolidin-1-yl-but-2E-enoyl)-hexahydro-pyrrolo[3,2-b]pyrrol-2-one hydrochloride] | 34 nM | at least 6 hours
CC(C)[C@H]1C(=O)N(S(C)(=O)=O)[C@H]2CCN(C(=O)c3ccc(CN4CCOCC4)cc3)[C@H]12.Cl (relative stereo) [Example 177, rel-(3R,3aR,6aS)-3-Isopropyl-1-methanesulfonyl-4-(4-morpholin-4-ylmethyl-benzoyl)-hexahydro-pyrrolo[3,2-b]pyrrol-2-one hydrochloride] | 20 nM | at least 6 hours
CC(C)[C@H]1C(=O)N(S(C)(=O)=O)[C@H]2CCN(C(=O)c3ccc(CN4CCCCC4)o3)[C@H]12.Cl (relative stereo) [Example 250, rel-(3R,3aR,6aS)-3-Isopropyl-1-methanesulfonyl-4-(5-piperidin-1-ylmethyl-furan-2-carbonyl)-hexahydro-pyrrolo[3,2-b]pyrrol-2-one hydrochloride] | 21 nM | at least 6 hours
CC(C)[C@H]1C(=O)N(S(C)(=O)=O)[C@H]2CCN(C(=O)/C=C/CN(C)CC(N)=O)[C@H]12 (relative stereo) [Example 150, rel-2-{[(4-(6R-Isopropyl-4-methanesulfonyl-5-oxo-hexahydro-(3aS,6aR)-pyrro[3,2-b]pyrrol-1-yl)-4-oxo-but-2E-enyl]-methyl-amino}-acetamide hydrochloride] | 50 nM | at least 6 hours
CC(C)[C@H]1C(=O)N(S(C)(=O)=O)[C@H]2CCN(C(=O)c3cccc(CN4CCCC4)c3)[C@H]12 (relative stereo) [Example 193, rel-(3R,3aR,6aS)-3-Isopropyl-1-methanesulfonyl-4-(3-pyrroidin-1-ylmethyl-benzoyl)-hexahydro-pyrrolo[3,2-b]pyrrol-2-one hydrochloride] | 50 nM | at least 6 hours
CCC[C@@H]1C(=O)N(S(C)(=O)=O)[C@@H]2CCN(C(=O)CCCCCN3CCCCCC3)[C@@H]12 [Example 117, hydrochloride] | 27 nM | at least 6 hours
CC(C)[C@H]1C(=O)N(S(C)(=O)=O)[C@H]2CCN(C(=O)/C=C/CN3CCOCC3)[C@H]12.Cl (relative stereo) [Example 142, rel-(3R,3aR,6aS)-3-isopropyl-1-methanesulfonyl-4-(4-morpholin-4-yl-but-2E-enoyl)-hexahydro-pyrrolo[3,2-b]pyrrol-2-one hydrochloride] | 55 nM | at least 6 hours
CC(C)[C@H]1C(=O)N(S(C)(=O)=O)[C@H]2CCN(C(=O)c3ccc(CN4CCCCCC4)cc3)[C@H]12 (relative stereo) [Example 178, rel-(3R,3aR,6aS)-4-(4-Azepin-1-ylmethyl-benzoyl)-3-isopropyl-1-methanesulfonyl-hexahydro-pyrrolo[3,2-b]pyrrol-2-one hydrochloride] | 68 nM | at least 6 hours
